From patent US20060165717A1 (priority 2005, published 2006)

Test system: Balb/c mice
Test: Immunization of mice with detoxified TAT vaccine compositions; TAT-specific IgG by ELISA
Format: in vivo
Conditions: 2 subcutaneous injections D0, D21, 1 μg TAT antigen
Procedure: Vaccine compositions comprising, as antigen, a detoxified TAT III B protein are prepared. The TAT protein was detoxified by means of an alkylation reaction in an alkaline medium using iodoacetamide under the following conditions: number of micromoles of iodoacetamide=200×number of micromoles of TAT+number of micromoles of DTT. This detoxified protein and the method for preparing it are described in detail in application WO 99/33346, where it is identified under the term “carboxymethylated TAT”.
Immunizing doses having the following composition are the obtained:
Adult Balb/c mice and 1-week-old “newborn” Balb/c mice are provided and are divided up into groups of 6 to 8 (groups of young mice) or of 5 to 6 (groups of adult mice). Experiments are carried out with 2 subcutaneous injections of the same vaccine formulation at D0 and at D21. Blood samples are taken after the booster injection. The TAT-specific immunoglobulins are assayed by the ELISA technique. A total of 10 to 40 mice per formulation was tested in several independent experiments: for the DC-Chol: 27 adults, 38 newborns; for the aluminum oxyhydroxide: 18 adults, 22 newborns; for the emulsion: 10 adults and 16 newborns; and in saline solution: 10 adults and 15 newborns. […]

Substance: 3β-[N-(N′,N′-dimethyl-aminoethane)carbamoyl]cholesterol [DCchol]
- adjuvant effect on TAT-specific total IgG response (FIG. 1), in words (adult Balb/c mice): capable of increasing the immune response
- adjuvant effect on TAT-specific total IgG response (FIG. 1), in words (newborn (1-week-old) Balb/c mice): capable of increasing the immune response
